Legend:
Assay in all cases: Test F preemergence
crabgrass, Brazil = assay type: in vivo, Digitaria horizontalis
Text: (§1) Seeds of plant species selected from corn (Zea mays), soybean (Glycine max), velvetleaf (Abutilon theophrasti), lambsquarters (Chenopodium album), wild poinsettia (Euphorbia heterophylla), pigweed, palmer (palmer pigweed, Amaranthus palmeri), common waterhemp (Amaranthus rudis), surinam grass (Brachiaria decumbens), large crabgrass (Digitaria sanguinalis), crabgrass, Brazil (Brazilian crabgrass, Digitaria horizontalis), fall panicum (Panicum dichotomiflorum), giant foxtail (Setaria faberii), green foxtail (Setaria viridis), goosegrass (Eleusine indica), johnsongrass (Sorghum halepense), common ragweed (Ambrosia elation), barnyardgrass (Echinochloa crus-galli), southern sandbur (Cenchrus echinatus), arrowleaf sida (Sida rhombifolia), Italian ryegrass (Lolium multiflorum), dayflower, VA (Virginia (VA) dayflower, Commelina virginica), field bindweed (Convolvulus arvensis), cocklebur (common cocklebur, Xanthium strumarium), morningglory (Ipomoea coccinea), nightshade (eastern black nightshade, Solanum ptycanthum), kochia (Kochia scoparia), yellow nutsedge (Cyperus esculentus), and hairy beggarticks (Bidens pilosa), were planted into a silt loam soil and treated preemergence with test chemicals formulated in a non-phytotoxic solvent mixture which included a surfactant.
(§2) At the same time, plants from these crop and weed species and also horseweed (Canada horseweed, Conyza canadensis), smartweed (ladysthumb smartweed, Polygonum persicaria), waterhemp_RES1, (ALS & Triazine resistant common waterhemp, Amaranthus rudis), and waterhemp_RES2, (ALS & HPPD resistant common waterhemp, Amaranthus rudis) were treated with postemergence applications of test chemicals formulated in the same manner. Plants ranged in height from 2 to 18 cm for postemergence treatments (1- to 4-leaf stage). Treated plants and controls were maintained in a greenhouse for 14 to 21 days, after which time all species were compared to controls and visually evaluated. Plant response ratings, summarized in Table F, are based on a scale of 0 to 100 where 0 is no effect and 100 is complete control. A dash (-) response means no test result.

morningglory = assay type: in vivo, Ipomoea coccinea
Text: as §1, §2

kochia = assay type: in vivo, Kochia scoparia
Text: as §1, §2

[1] = Preemergence, 16 g ai/ha, scale 0 to 100
[2] = Preemergence, 62 g ai/ha, scale 0 to 100
[3] = Preemergence, 125 g ai/ha, scale 0 to 100
[4] = preemergence, 8 g ai/ha, scale 0 to 100, 100 is complete control
[5] = preemergence, 16 g ai/ha, scale 0 to 100, 100 is complete control
[6] = Preemergence, 250 g ai/ha, scale 0 to 100

CCNC(=O)c1cc(CC)n(Cc2ccnc(C(F)(F)F)c2)n1 [Compound 196]
Plant response rating, Crabgrass, Brazil (crabgrass, Brazil; [1]): 100 | Plant response rating, Crabgrass, Brazil (crabgrass, Brazil; [2]): 100 | Plant response rating, Crabgrass, Brazil (crabgrass, Brazil; [3]): 100 | Plant response rating, Crabgrass, Brazil (crabgrass, Brazil; [4]): 30 | Plant response rating, Crabgrass, Brazil (crabgrass, Brazil; [5]): 75 | Plant response rating, Morningglory (morningglory; [1]): 35 | Plant response rating, Morningglory (morningglory; [2]): 70 | Plant response rating, Morningglory (morningglory; [3]): 80 | Plant response rating, Morningglory (morningglory; [4]): 5 | Plant response rating, Morningglory (morningglory; [5]): 10 | Plant response rating, Kochia (kochia; [2]): 85 | Plant response rating, Kochia (kochia; [3]): 100 | Plant response rating, Kochia (kochia; [4]): 15 | Plant response rating, Kochia (kochia; [5]): 40

Cc1cc(C(=O)NC(C)C)nn1Cc1ccnc(C(F)(F)F)c1 [Compound 197]
Plant response rating, Crabgrass, Brazil (crabgrass, Brazil; [1]): 85 | Plant response rating, Crabgrass, Brazil (crabgrass, Brazil; [2]): 100 | Plant response rating, Crabgrass, Brazil (crabgrass, Brazil; [3]): 100 | Plant response rating, Crabgrass, Brazil (crabgrass, Brazil; [4]): 0 | Plant response rating, Crabgrass, Brazil (crabgrass, Brazil; [5]): 75 | Plant response rating, Morningglory (morningglory; [1]): 20 | Plant response rating, Morningglory (morningglory; [2]): 30 | Plant response rating, Morningglory (morningglory; [3]): 60 | Plant response rating, Morningglory (morningglory; [4]): 0 | Plant response rating, Morningglory (morningglory; [5]): 10 | Plant response rating, Kochia (kochia; [2]): 75 | Plant response rating, Kochia (kochia; [3]): 98 | Plant response rating, Kochia (kochia; [4]): 0 | Plant response rating, Kochia (kochia; [5]): 0

CCc1cc(C(=O)NC2CC2)nn1Cc1ccnc(OCC(F)(F)F)c1 [Compound 200]
Plant response rating, Crabgrass, Brazil (crabgrass, Brazil; [6]): 100 | Plant response rating, Crabgrass, Brazil (crabgrass, Brazil; [1]): 35 | Plant response rating, Crabgrass, Brazil (crabgrass, Brazil; [2]): 95 | Plant response rating, Crabgrass, Brazil (crabgrass, Brazil; [3]): 100 | Plant response rating, Crabgrass, Brazil (crabgrass, Brazil; [5]): 0 | Plant response rating, Morningglory (morningglory; [6]): 75 | Plant response rating, Morningglory (morningglory; [1]): 0 | Plant response rating, Morningglory (morningglory; [2]): 10 | Plant response rating, Morningglory (morningglory; [3]): 60 | Plant response rating, Morningglory (morningglory; [5]): 0 | Plant response rating, Kochia (kochia; [6]): 100 | Plant response rating, Kochia (kochia; [2]): 70 | Plant response rating, Kochia (kochia; [3]): 90 | Plant response rating, Kochia (kochia; [5]): 20
